Paper PMC7395176, “Retromer stabilization results in neuroprotection in a model of Amyotrophic Lateral Sclerosis” (Nature Communications, 2020)

Assays:
[1] = tested on: SOD1^G93A-transfected Neuro2a cells; assay: LDH-Glo cytotoxicity assay in SOD1G93A-transfected Neuro2a cells; format: cell-based; settings: 10 µM
From the text: Having observed a marked improvement of viability in SOD1^G93A-transfected Neuro2a cells with VPS35 gain of function, we investigated the effect of VPS35 loss of function. We transfected Neuro2a cells with RNAi plasmids encoding a siRNA duplex for VPS35, to knockdown VPS35 and disrupt the retromer assembly. […] By including Sh56 plasmids in the transfection mix, we worsened this phenotype (Fig. 3d). […] We next assayed cytotoxicity by measuring lactate dehydrogenase (LDH) release with a LDH-Glo™ cytotoxicity assay. Cells were treated with plasmids encoding SOD1^G93A and the Sh56-RNAi sequence with or without compound 2a, while supernatants were used to measure LDH contents. Overexpression of SOD1^G93A increased LDH release by Neuro2aA cells, when compared with control cells (Fig. 3e).
LDH cytotoxicity was run on 96-well plates using LDH-Glo™ Cytotoxicity Assay (Promega). Briefly, Neuro2a cells were transfected with plasmids encoding pCMV-LacZ; pcDNA3.1(+)SOD1G93A[77] with or without VPS35 short interfering plasmids (Sh56) or compound 2a (10 µM). […] In each experiment we calculated %cytotoxicity=Exp.LDHrelease−mediumbackground/MaxLDHreleasecontrol−mediumbackground , and we run parallel positive controls treating cells with 200 µM H2O2. […]

VPS29-VPS35 heterodimer = VPS29-VPS35 heterodimer (Homo sapiens, UniProt Q96QK1+Q9UBQ0); assay: STD-NMR and WaterLogsy-NMR ligand-based binding experiments; settings: 2a 500 μM, VPS29-VPS35 10 μM
Experimental: We used a ligand-based NMR approach to localize the binding between compound 2a and the VPS29-VPS35 heterodimer. These techniques provide binding information without requiring any isotopic labeling of the proteins. Particularly, Saturation Transfer Difference NMR (STD-NMR)[32] and WaterLogsy-NMR (WL-NMR)[33] experiments were acquired in buffer solutions containing a large excess of compound 2a (500μM) with respect to VPS29-VPS35 (10 μM). Both STD-NMR and WL-NMR focus on the NMR signals of the ligand and utilize the magnetization transfer by the Nuclear Overhauser Effect (NOE) between protein and ligand. STD-NMR experiments are carried out by subtraction of a 1D ^1H spectrum where the protein protons are selectively irradiated (on-resonance spectrum) from a spectrum in which the protein is not saturated (off-resonance spectrum).
WL-NMR entails magnetization transfer to the ligand from either bulk water via a macromolecule, and/or the exchangeable protons and the water molecules present in the binding site. Positive peaks for proton resonances of the ligand in the WL-NMR spectrum are observed for binders in presence of the protein. […] As negative control, STD-NMR and WL-NMR experiments were performed for compound 2a in absence of the heterodimer. The absence of proton signals in the aromatic zone and the presence of negative signals in STD-NMR (Fig. 2k) and WL-NMR (Fig. 2l) spectra, respectively, confirms the binding between compound 2a and the VPS29-VPS35 heterodimer. Unfortunately, STD- and WL-NMR competition experiments between 2a and R55/1 could not be performed since the latter compound was not stable in our experimental conditions.
NMR spectra were acquired at 298K on a Bruker Avance NEO 700 MHz spectrometer equipped with a Z-gradient cryoprobe. The spectra were processed with the Bruker TOPSPIN 4.0.5 software packages. […] 1D ^1H spectra were recorded using a 1 s presaturation pulse with a B1 power of 200 Hz. […]

VPS29 = biological target: T1, VPS29 (Mus musculus, UniProt Q9QZ88); assay: Western blot for VPS29 in treated Neuro2a cells; format: cell-based; settings: 10 µM, 48 h, WB
T1 construct: endogenous in cells; host or cells: Neuro2a (ATCC CCL-131)
Experimental: Compound 2a increases VPS26b and VPS29 in Neuro2a […]
a,WBs forVPS26b, VPS29 and β-Tubulin in vehicle- and compound 2a-treated Neuro2a cells(10 μM, 48h, 3x10^5 cells/well).Quantitative analyses of blots (means ± SD) are shown inhistograms (control:n=4 independent wells, 2a: n=5 independent wells examined in one experiment, p<0.0001 for all the comparisons. Two-tailed Student’s test was used to determine the statisticalsignificanceof data, ***p<0.0001
(1 picture or pasted object on this page, not shown here)

VPS35 = VPS35 (Mus musculus, UniProt Q9EQH3+Q9QZ88); assay: Western blot for VPS35 in spinal cord extracts of treated C57BL6J mice; format: in vivo; parameters: from tissue; host or cells: mouse (lumbar) spinal cord, motor neurons; settings: 10 mg/Kg intraperitoneally daily, 1 week
Experimental: Compounds 2a, 4a, and standard R55/1 (10 mg/Kg) were intraperitoneally injected in C57BL6J mice daily. After 1 week, mice were sacrificed, saline perfused to avoid CNS contamination by compounds in blood circulation, and SC protein extracts were assayed by WB. […] Therefore, phenyl-1,3-bis-guanylhydrazone 2a was selected as an early lead.

NC(N)=N/N=C/c1cccc(/C=N/N=C(N)N)c1 [compound 2a, phenyl-1,3-bis-guanylhydrazone]
LDH release ([1]; Neuro2a transfected with SOD1G93A and Sh56 plasmids): high LDH release was observed | LDH release ([1]; SOD1G93A-transfected Neuro2a, 48 h): significantly reduced LDH release | STD-NMR binding (VPS29-VPS35 heterodimer): interaction between the ligand and the protein complex | WL-NMR binding (VPS29-VPS35 heterodimer): binds to the protein complex | VPS29 protein levels (VPS29): significantly increased | VPS35 levels in SC extracts (VPS35): significantly increased
